Drawing on paper PMC6788505 (2019), this text covers binding and KD for one compound.

The subject of test [1] is CA40_1MM (DNA, aptamer) ACGCTCCGGACTTGGGTGGGTGGGTTGGGGTACGGTGTGT
Put plainly: E-AB sensor, square-wave voltammetry. As to conditions: working buffer; apparent; surface-bound.

The subject of test [2] is CA40_2MM (DNA, aptamer) ACGCTCTGGACTTGGGTGGGTGGGTTGGGGTACGGTGTGT
Briefly: E-AB sensor, square-wave voltammetry. The note with it: working buffer; apparent; surface-bound.

Test [3] deals with CA36 (DNA, aptamer) GCTCCGGACTTGGGTGGGTGGGTTGGGGTACGGTGC
Put plainly: E-AB sensor, square-wave voltammetry. As to conditions: working buffer; apparent; surface-bound.

In test [4] the test system is CA32 (DNA, aptamer) TCCGGACTTGGGTGGGTGGGTTGGGGTACGGT
Put plainly: E-AB sensor, square-wave voltammetry. As to conditions: working buffer; apparent; surface-bound.

In test [5] the test system is CA28 (DNA, aptamer) CGGACTTGGGTGGGTGGGTTGGGGTACG
Put plainly: E-AB sensor, square-wave voltammetry. As to conditions: working buffer; apparent; surface-bound; KD fixed in fit.

For test [6], the system named is CA16 (DNA, G4) GGGTGGGTGGGTTGGG
Put plainly: E-AB sensor, square-wave voltammetry. The note with it: working buffer; apparent; surface-bound; KD fixed in fit.

The subject of test [7] is CA40 (DNA, aptamer) ACGCTCCGGACTTGGGTGGGTGGGTTGGGGTACGGTGCGT
Briefly: fluorescence titration (intrinsic irinotecan fluorescence). As to conditions: working buffer; 1 µM irinotecan titrated with aptamer; excitation 370 nm.

The test system of test [8] is CA32 (DNA, aptamer) TCCGGACTTGGGTGGGTGGGTTGGGGTACGGT
Put plainly: E-AB sensor, kinetic differential measurement (10 and 120 Hz). As to conditions: buffer; apparent; co-deposited 1:1 with linear probe; surface-bound.

As for `CCc1c2c(nc3ccc(OC(=O)N4CCC(N5CCCCC5)CC4)cc13)-c1cc3c(c(=O)n1C2)COC(=O)[C@]3(O)CC`, the binding result in test [1], in test [2], in test [3], in test [4], in test [5] and in test [6] was “yes” in each case. Besides, the KD amounted to 0.475 ± 0.01 µM in test [7] and 16.0 ± 1.3 µM in test [8].
